# In patent US8383627B2, “Crystalline polymorph of doxazosin mesylate (form IV) and process for preparation thereof” (CIPLA Limited, priority 2007, dated 2013):
# Where a name gives a salt, the structure may show the parent alone.
# Experiment: Comparative intrinsic dissolution study
# Assay type: physicochemical
# Details: for % Release of Doxazosin Mesylate: 50 mg pellet, 900 ml 0.01N HCl, 37±0.5° C., paddle 50 rpm
# Protocol: To measure the intrinsic dissolution of the doxazosin mesylate Form IV, Form M and Form D, samples were measured to compare the influence of the different parameter settings. At appropriate time intervals, an automated sample collector removes aliquots from dissolution medium for analysis. The time interval for sampling can vary, for example, from 2 to 30 minutes, depending on the properties of the drug and dissolution medium used. Suitable dissolution equipment for these operations include LAB INDIA DISSO 2000.
# A tableting mixture (50 mg) comprising solely doxazosin mesylate (i.e. with no excipients) was prepared and compressed to a pellet using a manual hand press operating at a compression pressure of 5 tones for 5 minutes.
# In-vitro dissolutions studies were performed on the 50 mg pellet in a LAB INDIA DISSO 2000.
# The pellet was fixed in a PFTE holder, such that only the pellet surface came into contact with the dissolution medium. The PFTE loaded holder was placed in the dissolution vessel containing 900 ml of 0.01N HCl at 37±0.5° C. Three pellets were measured for each run of the design of the experiments. Stirring was performed with a paddle rotating at 50 rpm. The dissolution was followed up to 1440 min and the concentration of active ingredient, doxazosin mesylate, dissolved in the test medium was determined by removing samples of 10 ml at the specified time.
# The concentration of doxazosin mesylate was quantified by HPLC UV method at a maximum wavelength of 245 nm under conditions as specified: • Mobile Phase: 450:450:100:: Buffer:MeOH:Acetonitrile • Buffer: 0.3% v/v Diethylamine. The pH adjusted to 2.5 with orthophosphoric acid • Column: Inersil ODS 15 cm • Flow: 1.0 ml/min
# The percentage of doxazosin mesylate released was plotted against time. The intrinsic dissolution rate was derived from the slope of this curve.
smiles,measurement,setting,value
"COc1cc2nc(N3CCN(C(=O)C4COc5ccccc5O4)CC3)nc(N)c2cc1OC (stereo not drawn) [Form M, doxazosin mesylate]",% Release of Doxazosin Mesylate,"5 minutes, listed as Form -M",1.5%
same,% Release of Doxazosin Mesylate,"15 minutes, listed as Form -M",2.8%
same,% Release of Doxazosin Mesylate,"30 minutes, listed as Form -M",5.0%
same,% Release of Doxazosin Mesylate,"45 minutes, listed as Form -M",6.5%
same,% Release of Doxazosin Mesylate,"60 minutes, listed as Form -M",8.1%
same,% Release of Doxazosin Mesylate,"120 minutes, listed as Form -M",14.1%
same,% Release of Doxazosin Mesylate,"180 minutes, listed as Form -M",20.8%
same,% Release of Doxazosin Mesylate,"240 minutes, listed as Form -M",26.5%
same,% Release of Doxazosin Mesylate,"360 minutes, listed as Form -M",39.5%
same,% Release of Doxazosin Mesylate,"480 minutes, listed as Form -M",50.2%
same,% Release of Doxazosin Mesylate,"600 minutes, listed as Form -M",58.8%
same,% Release of Doxazosin Mesylate,"720 minutes, listed as Form -M",67.0%
same,% Release of Doxazosin Mesylate,"720 minutes, listed as form M",67.0%
same,% Release of Doxazosin Mesylate,"900 minutes, listed as Form -M",74.9%
same,% Release of Doxazosin Mesylate,"1080 minutes, listed as Form -M",78.0%
same,% Release of Doxazosin Mesylate,"1260 minutes, listed as Form -M",79.5%
"COc1cc2nc(N3CCN(C(=O)C4COc5ccccc5O4)CC3)nc(N)c2cc1OC (stereo not drawn) [Form IV, 1-(4-amino-6,7-dimethoxy-2-quinazolinyl)-4-(2,3-dihydro-1,4-benzodioxin-2-yl)carbonyl piperazine monomethanesulfonate]",% Release of Doxazosin Mesylate,"5 minutes, monomethanesulfonate",1.6%
same,% Release of Doxazosin Mesylate,"15 minutes, monomethanesulfonate",3.6%
same,% Release of Doxazosin Mesylate,"30 minutes, monomethanesulfonate",6.6%
same,% Release of Doxazosin Mesylate,"45 minutes, monomethanesulfonate",9.5%
same,% Release of Doxazosin Mesylate,"60 minutes, monomethanesulfonate",12.0%
same,% Release of Doxazosin Mesylate,"120 minutes, monomethanesulfonate",21.8%
same,% Release of Doxazosin Mesylate,"180 minutes, monomethanesulfonate",34.5%
same,% Release of Doxazosin Mesylate,"240 minutes, monomethanesulfonate",45.7%
same,% Release of Doxazosin Mesylate,"360 minutes, monomethanesulfonate",66.2%
same,% Release of Doxazosin Mesylate,"480 minutes, monomethanesulfonate",77.4%
same,% Release of Doxazosin Mesylate,"600 minutes, monomethanesulfonate",80.0%
same,% Release of Doxazosin Mesylate,"720 minutes, listed as Form -IV, monomethanesulfonate",81.1%
same,% Release of Doxazosin Mesylate,"720 minutes, monomethanesulfonate",81.1%
same,% Release of Doxazosin Mesylate,"900 minutes, monomethanesulfonate",79.7%
same,% Release of Doxazosin Mesylate,"1080 minutes, monomethanesulfonate",79.2%
same,% Release of Doxazosin Mesylate,"1260 minutes, monomethanesulfonate",77.6%
same,higher dissolution rate compared with known Form D,at 30 minutes,8%
same,higher dissolution rate compared with known Form D,at 60 minutes,10.84%
same,higher dissolution rate compared with known Form D,at 120 minutes,15.14%
same,higher dissolution rate compared with known Form D,at 180 minutes,21.74%
same,higher dissolution rate compared with known Form D,at 240 minutes,29.33%
same,rate of dissolution,"compared with known forms, Form M and Form D",superior rate of dissolution
"COc1cc2nc(N3CCN(C(=O)C4COc5ccccc5O4)CC3)nc(N)c2cc1OC (stereo not drawn) [Form D, doxazosin mesylate]",% Release of Doxazosin Mesylate,"5 minutes, listed as Form -D",1.8%
same,% Release of Doxazosin Mesylate,"15 minutes, listed as Form -D",3.5%
same,% Release of Doxazosin Mesylate,"30 minutes, listed as Form -D",6.1%
same,% Release of Doxazosin Mesylate,"45 minutes, listed as Form -D",8.8%
same,% Release of Doxazosin Mesylate,"60 minutes, listed as Form -D",10.7%
same,% Release of Doxazosin Mesylate,"120 minutes, listed as Form -D",18.5%
same,% Release of Doxazosin Mesylate,"180 minutes, listed as Form -D",27.0%
same,% Release of Doxazosin Mesylate,"240 minutes, listed as Form -D",32.3%
same,% Release of Doxazosin Mesylate,"360 minutes, listed as Form -D",51.0%
same,% Release of Doxazosin Mesylate,"480 minutes, listed as Form -D",65.1%
same,% Release of Doxazosin Mesylate,"600 minutes, listed as Form -D",72.7%
same,% Release of Doxazosin Mesylate,720 minutes,74.5%
same,% Release of Doxazosin Mesylate,"720 minutes, listed as Form -D",74.5%
same,% Release of Doxazosin Mesylate,"900 minutes, listed as Form -D",76.0%
same,% Release of Doxazosin Mesylate,"1080 minutes, listed as Form -D",75.8%
same,% Release of Doxazosin Mesylate,"1260 minutes, listed as Form -D",75.6%
